Data: patent US8629240B2, “Peptide ligands for clusterin and uses thereof” (National Research Council of Canada, priority 2009, dated 2014)

Tests used:
rh-clusterin = target: T1, rh-clusterin (Homo sapiens, UniProt P10909); assay: STD-NMR binding of synthetic peptides to rh-clusterin; settings: ~1:30 protein:peptide, 298K
T1 construct: made in house; host or cells: HEK-293 cells
Protocol: To confirm direct binding of the peptides of Example 1 to clusterin, the interaction of the synthetic peptides of Example 2 with clusterin was tested using Nuclear Magnetic Resonance Saturation Transfer Difference (STD-NMR; Mayer & Meyer, 2001)
NMR samples were prepared by dissolving 0.15 mM of peptides in 50 mM sodium phosphate buffer, 0.2 mM EDTA, pH 6.5. rh-clusterin (˜1 mg/ml) in 5 mM sodium phosphate buffer, 0.02 mM EDTA, pH 7.4, was added to ˜1:30 protein:peptide ratio.
All NMR experiments were performed at 298K on a Bruker Avance800™ NMR spectrometer equipped with a 5 mm triple-resonance probe with three-axis gradients. Saturation transfer difference (STD) spectra was recorded using WATERGATE version of STD pulse sequence (35) with a 3 s selective saturation pulse applied in the relaxation delay and a 20 ms spinlock pulse with a field strength of 12.25 kHz. The saturation pulse was implemented using a pulse train of 49 ms Gaussian-shaped selective pulse and 1 ms interpulse delay. Each Gaussian-shaped pulse had 1000 points with a 1% truncation and was applied with a field strength of 75.9 Hz. STD spectra were recorded with a spectral width of 16025.64 Hz and 32 K data points. Time domain signals were accumulated with 1024 and 4096 scans for the free and complexed sample, respectively. NMR data were processed using Bruker Xwinnmr 2.6. An exponential weighting function of 7 Hz was applied prior to Fourier transformation and polynomial baseline correction.
NMR signals of peptide P3378 and rh-clusterin were severely overlapped, making it impossible to apply the above saturation pulse exclusively on rh-clusterin resonances without disturbing those of the peptide. In order to identify the binding interactions in the P3378-rh-clusterin complex, a new experimental scheme was implemented by applying the on-resonance saturation pulse at methyl resonances (0.912 ppm) and the off-resonance irradiation at −7.799 ppm (referenced H2O to 4.700 ppm). […]

T1 sequence (P10909 23-227 limits assumed): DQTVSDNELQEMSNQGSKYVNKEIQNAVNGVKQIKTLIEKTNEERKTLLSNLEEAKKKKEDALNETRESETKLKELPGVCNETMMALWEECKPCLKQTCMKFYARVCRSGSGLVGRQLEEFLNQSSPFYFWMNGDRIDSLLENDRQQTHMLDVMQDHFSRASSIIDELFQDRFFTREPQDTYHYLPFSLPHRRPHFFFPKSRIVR
T1 sequence (P10909 228-449 limits assumed): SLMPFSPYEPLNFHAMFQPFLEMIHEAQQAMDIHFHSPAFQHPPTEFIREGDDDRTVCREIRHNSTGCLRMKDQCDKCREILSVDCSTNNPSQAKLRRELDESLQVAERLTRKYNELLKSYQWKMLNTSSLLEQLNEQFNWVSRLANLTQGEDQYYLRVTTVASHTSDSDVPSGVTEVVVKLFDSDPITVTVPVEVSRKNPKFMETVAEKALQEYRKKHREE
Protocol for 4T1 tumor: As a model system, 4T1 mouse mammary carcinoma cell line cells were used to generate tumors in syngeneic BALB/c mice. […] Six to eight weeks old female BALB/c mice were obtained from Charles River. […] A 50 μl 1:1 solution of sterile Matrigel and saline, or the same solution containing 4T1 mouse mammary tumor cells (5×10^6 cells), was injected subcutaneously into the right hind thigh of the animal. Clippers and Nair were used to remove hair from the injection site as well as the lower back and the left thigh of the animals prior to the Matrigel and tumor cell injections. When tumors measured ˜0.5 to 0.8 cm in diameter (6-8 days), the tumor-bearing mice were subjected to in vivo imaging.
Animals were imaged using the following procedures. Animals were anesthetized using isoflurane (3% in O2 at 2 L/min). Prior to the injection of the labeled peptides, animals were subjected to a full body scan to obtain a background fluorescence image. P3378-Alexa680 or P3378R-Alexa680 was administered (25 nmol in 100 μL sterile saline) via the tail vein using a 0.5-ml insulin syringe with a 27-gauge fixed needle. Immediately after, the animal was placed on the heated animals plate (39° C.) of the ART eXplore Optix MX2 imaging system (Advanced Research Technologies, Montreal, Canada). Laser power and counting time per pixel were optimized at 9.6 μW and 0.5 s, respectively. These values remained constant during the entire experiment. The raster scan interval was set at 1.5 mm and was held constant during the acquisition of each image. The data were recorded as Temporal Point-Spread Functions (TPSF), and fluorescence intensity and fluorescence lifetime maps were generated. All images were analyzed using the ART Optix OptiView™ software. Volume data and 3D images were reconstructed using the ART OptiView™ 3D Reconstruction Software Module. All animals were euthanized after the imaging experiments.
Animals were imaged in the ART Optix MX2 small animal imager using three approaches: • a. Mice were injected intravenously (i.v.) via the tail vein with either 5 nanomoles of P3378 peptide labeled with Alexa680, or P3378R peptide labeled with Alexa680; • b. Mice were injected intravenously (i.v.) via the tail vein with either 25 nanomoles of P3378 peptide labeled with Alexa680, or P3378R peptide labeled with Alexa680; • c.

CC(C)C[C@H](NC(=O)[C@@H]1CCCN1C(=O)[C@@H](N)Cc1c[nH]cn1)C(=O)N[C@@H](CO)C(=O)N[C@@H](CCCCN)C(=O)N[C@@H](Cc1c[nH]cn1)C(=O)N1CCC[C@H]1C(=O)N[C@@H](Cc1ccc(O)cc1)C(=O)N[C@@H](Cc1c[nH]c2ccccc12)C(=O)N[C@@H](CO)C(=O)N[C@@H](CCC(N)=O)C(=O)N1CCC[C@H]1C(=O)N[C@@H](CO)C(=O)NCC(=O)N[C@@H](CO)C(=O)NCC(=O)N[C@@H](CS)C(=O)O [P3378]
binding to clusterin by STD-NMR (rh-clusterin): direct interaction
AUT/AUN ratio as a function of time: behaviour after the initial accumulation (4T1 tumor; co-injection of P3378-Dylight680 and P3378R-Dylight800, 25 nanomoles each i.v.): remains at the tumor site
residence at the tumor site (4T1 tumor; co-injection of P3378-Dylight680 and P3378R-Dylight800, 25 nanomoles each i.v., 6 animals): resided much longer at the tumor site
time post-injection up to which both peptides accumulate at the tumor site at the same rate (4T1 tumor; co-injection, AUT/AUN ratio): ~60 min
